Source: publication PMC12693026, “Green Contributions to the Chemistry of Perezone and Oxidation of the Double Bond of the Side Chain: A Theoretical Study and Cytotoxic Evaluation in MDA-MB231 Cells” (Molecules, 2025)

System: MDA-MB-231 breast cancer cells
Experiment: MTT cytotoxicity assay on MDA-MB-231 breast cancer cells
Format: cell-based
Conditions: Homo sapiens, MDA-MB-231, MDA-MB-231, MTT assay, mean ± S.D. of three values; read-out: IC50
Experimental: (§1) This test was performed using the MDA-MB231 breast cancer cell line (ATCC® CRM-HBT-26), as described by Mosmann. The cells were incubated at different concentrations of the compounds of interest. To generate the cell viability curves of all synthesized compounds, cells were seeded in 96-well culture plates at a density of 5000 cells/well and cultured in DMEM supplemented with 10% FBS. Cell viability was measured using MTT reagent dissolved in PBS (0.5 mg/mL). On the day of measurement, the medium was carefully replaced with fresh DMEM and 10% SFB containing diluted MTT (1:10, 10% MTT), and the sample was incubated for 1 h at 37 °C in a CO2 incubator to allow for the transformation of MTT dye into Formazan salt. After removing the incubation medium, the Formazan crystals were dissolved in 100 µL of DMSO solution. It is also important to note that the reduction in MTT was quantified by measuring absorbance at 570 nm using the Benchmark Plus absorbance microplate reader (Bio-Rad). The MTT test was repeated nine times. The proliferation percentage (% viability) was calculated according to the following:% Viability = (B/A) × 100 where A is the absorbance value of the control group and B is the absorbance value of the cells treated with the compounds of interest.
IC50 was extrapolated from the dose–response plot, obtained by plotting viability versus concentration. The concentration of the drug that reduced the viability of the cells by 50% (IC50) was determined by plotting the data points in triplicate over a concentration range and calculating the values using regression analysis.

Which IC50 does the source give for CC(C)=CCC[C@@H](C)C1=CC(=O)C(C)=C(O)C1=O [Compound 2, isoperezone, reference compound] here?
Its IC50 is 19.31 ± 0.05 µM.

Which IC50 does the source give for CC1=CC(=O)C(C(C)CCC2OC2(C)C)=C(O)C1=O (centres unmarked) [Compound 3] here?
The IC50 was 9.62 ± 0.76 µM.

For CC1=C(O)C(=O)C(C(C)CCC2OC2(C)C)=CC1=O (centres unmarked) [Compound 4], which IC50 is on record?
Its IC50 is 114 ± 31.8 µM.

Which IC50 does the source give for CC1=CC(=O)C(C(C)CCC2OC(C)(C)OC2(C)C)=C(O)C1=O (centres unmarked) [Compound 5] here?
Its IC50 is 74.9 ± 14.8 µM.

For CC1=C(O)C(=O)C(C(C)CCC2OC(C)(C)OC2(C)C)=CC1=O (centres unmarked) [Compound 6], which IC50 is on record?
Its IC50 is 8.44 ± 1.46 µM.

Which IC50 does the source give for CC(=O)OC(C)(C)C(O)CCC(C)C1=C(O)C(=O)C(C)=CC1=O (centres unmarked) [Compound 7] here?
The IC50 was 103 ± 5.96 µM.

Which IC50 does the source give for CC1=CC(=O)C(C(C)CCC(O)C(C)(C)O)=C(O)C1=O (centres unmarked) [Compound 9] here?
Its IC50 is 101 ± 19.2 µM.

For CC1=C(O)C(=O)C(C(C)CCC(O)C(C)(C)O)=CC1=O (centres unmarked) [Compound 10], which IC50 is on record?
The IC50 was 140 ± 6.13 µM.

Same assay, conditions: Homo sapiens, MDA-MB-231, MDA-MB-231, MTT assay, mean ± S.D. of three values; read-out: IC50 (μg/mL)

Which IC50 does the source give for CC(C)=CCC[C@@H](C)C1=CC(=O)C(C)=C(O)C1=O [Compound 2, isoperezone, reference compound] here?
Its IC50 is 4.79 ± 0.01 µg/mL.

Which IC50 does the source give for CC1=CC(=O)C(C(C)CCC2OC2(C)C)=C(O)C1=O (centres unmarked) [Compound 3] here?
The IC50 was 2.54 ± 0.2 µg/mL.

With CC1=C(O)C(=O)C(C(C)CCC2OC2(C)C)=CC1=O (centres unmarked) [Compound 4] as the compound, how does the IC50 read?
Its IC50 is 30 µg/mL.

Which IC50 does the source give for CC1=CC(=O)C(C(C)CCC2OC(C)(C)OC2(C)C)=C(O)C1=O (centres unmarked) [Compound 5] here?
The IC50 was 24.1 ± 4.75 µg/mL.

With CC1=C(O)C(=O)C(C(C)CCC2OC(C)(C)OC2(C)C)=CC1=O (centres unmarked) [Compound 6] as the compound, how does the IC50 read?
Its IC50 is 2.72 ± 0.47 µg/mL.

Which IC50 does the source give for CC(=O)OC(C)(C)C(O)CCC(C)C1=C(O)C(=O)C(C)=CC1=O (centres unmarked) [Compound 7] here?
Its IC50 is 33.2 ± 1.93 µg/mL.

With CC(=O)OC(C)(C)C(O)CCC(C)C1=CC(=O)C(C)=C(O)C1=O (centres unmarked) [Compound 8] as the compound, how does the IC50 read?
Its IC50 is 33 µg/mL.

For CC1=CC(=O)C(C(C)CCC(O)C(C)(C)O)=C(O)C1=O (centres unmarked) [Compound 9], which IC50 is on record?
Its IC50 is 28.4 ± 5.4 µg/mL.

Which IC50 does the source give for CC1=C(O)C(=O)C(C(C)CCC(O)C(C)(C)O)=CC1=O (centres unmarked) [Compound 10] here?
The IC50 was 39.4 ± 1.73 µg/mL.

Same assay, conditions: MDA-MB-231, MTT assay, mean ± S.D. of three values

With CC1=C(O)C(=O)C(C(C)CCC2OC2(C)C)=CC1=O (centres unmarked) [Compound 4] as the compound, how does the “IC50” value read?
Its value is 30.2 ± 8.4 µg/mL.

System: not listed separately
Experiment: MTT mortality on normal fibroblasts (control)
Format: cell-based
Conditions: human, primary dermal fibroblast normal cells, data from IC50 (µM)
Experimental: [The source words this procedure for another cell line and says it was used here with some conditions changed.] as §1

For CC1=CC(=O)C(C(C)CCC2OC2(C)C)=C(O)C1=O (centres unmarked) [Compound 3], which mortality at 24 h is on record?
Its mortality at 24 h is 19.5 ± 3.27%.

With CC1=C(O)C(=O)C(C(C)CCC2OC2(C)C)=CC1=O (centres unmarked) [Compound 4] as the compound, how does the mortality at 24 h read?
The mortality at 24 h was 42.38 ± 0.19%.

For CC1=CC(=O)C(C(C)CCC2OC(C)(C)OC2(C)C)=C(O)C1=O (centres unmarked) [Compound 5], which mortality at 24 h is on record?
Its mortality at 24 h is 90.7 ± 0.58%.

Which mortality at 24 h does the source give for CC1=C(O)C(=O)C(C(C)CCC2OC(C)(C)OC2(C)C)=CC1=O (centres unmarked) [Compound 6] here?
The mortality at 24 h was 18.4 ± 1.54%.

With CC(=O)OC(C)(C)C(O)CCC(C)C1=C(O)C(=O)C(C)=CC1=O (centres unmarked) [Compound 7] as the compound, how does the mortality at 24 h read?
Its mortality at 24 h is 96.8 ± 2.76%.

With CC1=CC(=O)C(C(C)CCC(O)C(C)(C)O)=C(O)C1=O (centres unmarked) [Compound 9] as the compound, how does the mortality at 24 h read?
The mortality at 24 h was 46.4 ± 1.08%.

Which mortality at 24 h does the source give for CC1=C(O)C(=O)C(C(C)CCC(O)C(C)(C)O)=CC1=O (centres unmarked) [Compound 10] here?
The mortality at 24 h was 68.7 ± 1.08%.

System: not listed separately
Experiment: Solubility observed in the cytotoxic testing
Format: physicochemical
Conditions: observation during MTT testing

For CC(=O)OC(C)(C)C(O)CCC(C)C1=C(O)C(=O)C(C)=CC1=O (centres unmarked) [Compound 7], which “solubility in the cytotoxic/IC50 testing (in words)” value is on record?
Its value is “did not show great solubility”.

For CC(=O)OC(C)(C)C(O)CCC(C)C1=CC(=O)C(C)=C(O)C1=O (centres unmarked) [Compound 8], which “solubility in the cytotoxic/IC50 testing (in words)” value is on record?
The value was “poor solubility”.

System: caspase-3
Experiment: not given
Conditions: assessed for diabetes mellitus; cited from earlier work

For O=C[C@H](O)[C@@H](O)[C@@H](O)[C@H](O)C(=O)O [D-galacturonic acid], which “binding energy with caspase-3” value is on record?
Its value is -4.03 kcal/mol.

Same assay, conditions: cited from earlier work

With CC1=CC(=O)c2c(O)cccc2C1=O [plumbagin] as the compound, how does the “binding energy of complex with caspase-3” value read?
Its value is -10.13 kcal/mol.
